Data on 1 molecule can be found in paper PMC12610274, “Identification of Marrubiin as a Cathepsin C Inhibitor for Treating Rheumatoid Arthritis” (Molecules, 2025).

For one test, the target named is T1, CTSL (Homo sapiens, UniProt P07711).
T1 construct: purchased R&D Systems
The experiment in a line: Human recombinant cathepsins isolated enzyme assay, CTSL. The test is classed as biochemical. The following applies: read-out: CTSL Enz (IC50: μM). An excerpt: The protocol for evaluating the inhibitory potency of compounds against other cathepsins referred to the CTSC activity assay. Recombinant human CTSB, CTSL, CTSS and CTSK for testing were also purchased from R&D Systems Biotechnology Company. Recombinant human Cat G, NE, and PR3 For testing were purchased from MedChemExpress. A multi-functional microplate reader was used to measure the absorption of Z-Leu-Arg-AMC at excitation/emission wavelengths of 380/460 nm to assess the activity changes of CTSB and CTSL, while the absorption of MCA-Arg-Pro-Lys-Pro-Val-Glu-NVAL-Trp-Arg-Lys(DNP)-NH2 at 320/405 nm was measured to evaluate the activity changes of CTSS and CTSK. Different assay buffers were prepared for diluting samples and measuring the activities of specific NSPs: a buffer containing 50 mM Tris and 750 mM NaCl (pH 7.4) was used for NE and PR3; a buffer containing 50 mM Tris, 750 mM NaCl, 5 mM EDTA (pH 7.4) was used for Cat G; and a buffer containing 25 mM MES, 50 mM NaCl, 5 mM DTT (pH 6.0) was used for CTSC. Synthetic substrates were employed to assess the activities of NSPs and CTSC: H-Gly-Arg-AMC for CTSC, N-MeSuc-Ala-Ala-Pro-Val-pNA for NE, aminobenzoyl-Val-Ala-Asp-Cys-Ala-Asp-Gln-ethylenediamine 2,4-dinitrophenyl for PR3, and N-Suc-Ala-Ala-Pro-Phe-pNA for Cat G. Each group of tests was independently repeated at least 3 times, and IC50 values were calculated using SPSS 10.0.

Another test addresses Dipeptidyl Peptidase 9 (Homo sapiens, UniProt Q86TI2). The experiment in a line: Recombinant dipeptidyl peptidases isolated enzyme assay, DPP9. In kind it is biochemical. The following applies: read-out: Dipeptidyl Peptidase 9 Enz (IC50: μM). The text has this:
Table 3 Inhibitory effects of marrubiin on dipeptidyl peptidase. | column: Dipeptidyl Peptidase 9 Enz (IC50: μM)

The next test addresses T2, intracellular CTSC (Homo sapiens, UniProt P53634).
T2 construct: endogenous in cells; host or cells: U937
The experiment in a line: CTSC cell-based assay using the U937 cell line. To be noted: read-out: Cell-Based Enz (IC50: nM). The procedure:
Cell-based CTSC enzymatic activity assays were performed in 96-well clear-bottom black microplates. […] The detection substrate, H-Gly-Arg-AFC, was diluted to 100 µM in serum-free medium and stored for later use. U937 cells in the logarithmic growth phase were harvested, washed with PBS, and counted. A single-cell suspension was prepared at a density of 1.0 × 10^6 cells/mL using serum-free medium. 30 µL of cell suspension was seeded into each well of the 96-well plate. To the test wells, 10 µL of the compound working solution was added, while 10 µL of serum-free medium was added to the control wells. The plate was pre-incubated in a cell culture incubator at 37 °C for 3 h. Subsequently, 10 µL of H-Gly-Arg-AFC was added to initiate the enzymatic reaction, and the plate was further incubated at 37 °C for 1 h. Fluorescence measurements were performed using a multimode microplate reader at excitation/emission wavelengths of 400/505 nm. Each group of tests was independently repeated at least 3 times, and IC50 values were calculated using SPSS 10.0.

In the next test the target is CTSC (Homo sapiens, UniProt P53634). The experiment in a line: Cellular thermal shift assay (CETSA) in U937 cells. On the set-up: endogenous in cells; host or cells: U937. The test is classed as binding. The following applies: DMSO control 49 °C. The procedure: The Western blot experiments in this study were performed as described below. Cells in the logarithmic growth phase were collected in appropriate numbers according to different experimental purposes. After being thoroughly washed with phosphate-buffered saline and centrifuged, the cell pellets were resuspended in phosphate-buffered saline to obtain single-cell suspensions. Cells were fully lysed using RIPA buffer (Beyotime, P0013B) supplemented with EDTA-free protease and phosphatase inhibitor (Abcam, ab201120). Total cellular protein solutions were obtained after centrifugation to remove cell debris. The isolated proteins were quantified using the BeyoBCA protein assay kit (Beyotime, P0399M) following the operational protocol. The quantified protein samples were thoroughly mixed with protein loading buffer, boiled on a dry bath for 5 min, and then cooled to room temperature for Western blot analysis. […] Finally, enhanced chemiluminescent horseradish peroxidase substrate (Tanon Science & Technology Co., Ltd., Shanghai, China, 180-506) was used to visualize protein bands on a ChemiDoc XRS system (Bio-Rad Laboratories, Inc., Hercules, CA, USA), and the protein bands were quantified using Image Lab analysis software (Version 6.1) (Bio-Rad). […]
CTSC, sequence (P53634 25-463): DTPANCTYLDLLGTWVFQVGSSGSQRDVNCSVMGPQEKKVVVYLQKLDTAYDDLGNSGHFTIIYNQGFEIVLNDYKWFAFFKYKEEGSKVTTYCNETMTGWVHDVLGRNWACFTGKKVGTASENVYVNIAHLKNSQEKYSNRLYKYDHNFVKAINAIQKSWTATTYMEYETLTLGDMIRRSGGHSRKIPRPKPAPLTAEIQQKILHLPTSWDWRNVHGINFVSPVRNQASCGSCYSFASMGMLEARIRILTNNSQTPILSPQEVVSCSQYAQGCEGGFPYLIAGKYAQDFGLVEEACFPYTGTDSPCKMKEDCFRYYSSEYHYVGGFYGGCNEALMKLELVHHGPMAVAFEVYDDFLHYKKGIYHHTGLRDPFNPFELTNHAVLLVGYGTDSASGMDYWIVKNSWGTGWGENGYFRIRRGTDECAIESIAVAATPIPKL

T2 sequence (P53634 25-463): as above
T1 sequence (P07711 114-333): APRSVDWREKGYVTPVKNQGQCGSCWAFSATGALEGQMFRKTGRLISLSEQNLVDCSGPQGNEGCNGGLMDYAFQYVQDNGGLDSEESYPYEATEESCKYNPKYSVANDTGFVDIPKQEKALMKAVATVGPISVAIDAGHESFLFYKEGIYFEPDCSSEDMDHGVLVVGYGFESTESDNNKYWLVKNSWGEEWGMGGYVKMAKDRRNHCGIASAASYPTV
Dipeptidyl Peptidase 9, sequence (Q86TI2 whole entry, species assumed): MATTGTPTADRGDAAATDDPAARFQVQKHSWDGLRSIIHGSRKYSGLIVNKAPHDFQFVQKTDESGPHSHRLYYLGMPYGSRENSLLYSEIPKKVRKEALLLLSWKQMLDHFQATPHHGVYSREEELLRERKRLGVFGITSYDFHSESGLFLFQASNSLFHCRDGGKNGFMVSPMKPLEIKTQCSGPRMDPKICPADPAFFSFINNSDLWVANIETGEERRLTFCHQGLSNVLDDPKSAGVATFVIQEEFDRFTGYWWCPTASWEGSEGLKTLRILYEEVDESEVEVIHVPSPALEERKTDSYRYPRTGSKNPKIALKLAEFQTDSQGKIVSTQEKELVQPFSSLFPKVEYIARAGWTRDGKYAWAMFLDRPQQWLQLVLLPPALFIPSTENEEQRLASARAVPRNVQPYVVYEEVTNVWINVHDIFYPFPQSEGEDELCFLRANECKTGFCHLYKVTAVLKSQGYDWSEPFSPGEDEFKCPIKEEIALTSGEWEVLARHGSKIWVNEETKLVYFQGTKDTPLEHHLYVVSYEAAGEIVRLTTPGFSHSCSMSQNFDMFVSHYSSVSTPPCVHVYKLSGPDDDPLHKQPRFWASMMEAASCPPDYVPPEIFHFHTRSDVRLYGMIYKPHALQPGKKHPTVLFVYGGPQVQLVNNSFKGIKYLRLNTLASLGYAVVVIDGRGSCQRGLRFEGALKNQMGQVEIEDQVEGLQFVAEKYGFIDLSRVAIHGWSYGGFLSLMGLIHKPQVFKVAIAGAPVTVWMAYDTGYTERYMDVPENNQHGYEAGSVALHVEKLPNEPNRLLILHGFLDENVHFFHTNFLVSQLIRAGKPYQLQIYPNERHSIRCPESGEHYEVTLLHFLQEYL

In general, IC50 refers to the midpoint of a concentration-inhibition curve. Take `C[C@@H]1C[C@H]2OC(=O)[C@@]3(C)CCC[C@@](C)([C@@H]23)[C@@]1(O)CCc1ccoc1` [Marrubiin, marrubiin]: the IC50 was 4.4 ± 0.5 µM on CTSL, greater than 10 µM on Dipeptidyl Peptidase 9 and 51.6 ± 3.2 nM at intracellular CTSC. The “temperature at which significant CTSC degradation occurred” value is “approximately 61 °C” at CTSC (10 μM) and roughly 67 °C on CTSC (20 μM).
